Experimental data: the supplement of paper PMC10307832

How the values were obtained:
Assay in all cases: relative viability (nuclei count vs DMSO), 5 days (fraction); higher = more cells survive
Ponatinib + Foretinib = compound: Cc1ccc(C(=O)Nc2ccc(CN3CCN(C)CC3)c(C(F)(F)F)c2)cc1C#Cc1cnc2cccnn12 [Ponatinib] + COc1cc2c(Oc3ccc(NC(=O)C4(C(=O)Nc5ccc(F)cc5)CC4)cc3F)ccnc2cc1OCCCN1CCOCC1 [Foretinib] (partner 0.25 µM)
In short: (§1)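 Five library-drug doses in √10 steps were combined with a fixed anchor-drug dose, or a single drug was given alone, by pin tool to lung cancer cell lines in 1536-well plates the day after seeding. Nuclei were stained and counted after 5 days. Relative viability is the nuclei count in treated wells over that in vehicle wells, taken as the median of duplicate plates.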

Ponatinib + Vorinostat = compound: Cc1ccc(C(=O)Nc2ccc(CN3CCN(C)CC3)c(C(F)(F)F)c2)cc1C#Cc1cnc2cccnn12 [Ponatinib] + O=C(CCCCCCC(=O)Nc1ccccc1)NO [Vorinostat] (partner 1 µM)
In short: as §1

Pazopanib + Trametinib = compound: Cc1ccc(Nc2nccc(N(C)c3ccc4c(C)n(C)nc4c3)n2)cc1S(N)(=O)=O [Pazopanib] + CC(=O)Nc1cccc(-n2c(=O)n(C3CC3)c(=O)c3c(Nc4ccc(I)cc4F)n(C)c(=O)c(C)c32)c1 [Trametinib] (partner 0.02 µM)
In short: as §1

Pazopanib + Navitoclax = compound: Cc1ccc(Nc2nccc(N(C)c3ccc4c(C)n(C)nc4c3)n2)cc1S(N)(=O)=O [Pazopanib] + CC1(C)CCC(c2ccc(Cl)cc2)=C(CN2CCN(c3ccc(C(=O)NS(=O)(=O)c4ccc(N[C@H](CCN5CCOCC5)CSc5ccccc5)c(S(=O)(=O)C(F)(F)F)c4)cc3)CC2)C1 [Navitoclax] (partner 0.5 µM)
In short: as §1

Cell Line | relative viability (Ponatinib + Foretinib; first compound 0.002 µM) | relative viability (Ponatinib + Foretinib; first compound 0.006325 µM) | relative viability (Ponatinib + Foretinib; first compound 0.06325 µM) | relative viability (Ponatinib + Foretinib; first compound 0.2 µM) | relative viability (Ponatinib + Vorinostat; first compound 0.002 µM) | relative viability (Ponatinib + Vorinostat; first compound 0.006325 µM) | relative viability (Ponatinib + Vorinostat; first compound 0.06325 µM) | relative viability (Ponatinib + Vorinostat; first compound 0.2 µM) | relative viability (Pazopanib + Trametinib; first compound 0.01 µM) | relative viability (Pazopanib + Trametinib; first compound 0.03162 µM) | relative viability (Pazopanib + Trametinib; first compound 0.1 µM) | relative viability (Pazopanib + Trametinib; first compound 0.3162 µM) | relative viability (Pazopanib + Trametinib; first compound 1 µM) | relative viability (Pazopanib + Navitoclax; first compound 0.01 µM) | relative viability (Pazopanib + Navitoclax; first compound 0.03162 µM) | relative viability (Pazopanib + Navitoclax; first compound 0.1 µM) | relative viability (Pazopanib + Navitoclax; first compound 0.3162 µM) | relative viability (Pazopanib + Navitoclax; first compound 1 µM)
NCI-H1437 | 1.22 | 1.22 | 1.31 | 1.28 | 0.859 | 0.858 | 0.938 | 0.901 | 0.525 | 0.531 | 0.454 | 0.575 | 0.509 | 1.11 | 1.06 | 1.07 | 0.985 | 1.08
NCI-H1650 | 1.36 | 1.07 | 1.55 | 1.31 | 0.642 | 0.539 | 0.654 | 0.65 | 0.725 | 0.682 | 0.734 | 0.629 | 0.695 | 1.28 | 1.26 | 1.44 | 1.18 | 1.04
NCI-H1651 | 0.765 | 0.777 | 0.888 | 0.814 | 0.507 | 0.579 | 0.602 | 0.601 | 0.833 | 0.831 | 0.814 | 0.808 | 0.862 | 1.1 | 1.16 | 1.17 | 1.12 | 1.16
NCI-H1666 | 0.967 | 0.988 | 1.06 | 0.886 | 0.998 | 1.01 | 1.08 | 0.89 | 0.925 | 0.893 | 0.899 | 0.884 | 1 | 1.06 | 0.975 | 0.926 | 1.22 | 1.01
NCI-H1734 | 0.73 | 0.895 | 0.821 | 0.809 | 0.763 | 0.777 | 0.914 | 0.773 | 0.669 | 0.697 | 0.671 | 0.612 | 0.626 | 0.796 | 0.795 | 0.854 | 0.875 | 0.901
NCI-H1755 | 0.818 | 0.913 | 0.92 | 0.804 | 0.685 | 0.777 | 0.72 | 0.82 | 0.685 | 0.748 | 0.799 | 0.723 | 0.767 | 0.852 | 0.937 | 1.01 | 1 | 0.991
NCI-H1793 | 0.749 | 0.696 | 0.707 | 0.539 | 0.678 | 0.701 | 0.846 | 0.686 | – | 0.425 | 0.411 | 0.404 | 0.502 | – | 0.421 | 0.387 | 0.463 | 0.542
NCI-H1915 | 1.03 | 1.12 | 0.996 | 1.01 | 0.457 | 0.49 | 0.469 | 0.491 | 0.294 | 0.312 | 0.355 | 0.336 | 0.347 | 0.821 | 0.782 | 0.78 | 0.768 | 0.729
NCI-H1944 | 0.876 | 0.856 | 1.05 | 0.859 | 0.519 | 0.637 | 0.693 | 0.679 | 0.389 | 0.387 | 0.407 | 0.453 | 0.433 | 0.942 | 0.997 | 1.09 | 1.05 | 1.08
